# Data reported in US9469854B2, “Pharmaceutical composition for treating liver diseases” (Academia Sinica, priority 2014, dated 2016).
# What was measured:
# [1] = system: hsa-miR-21-3p; experiment: miRNA microarray profiling of berberine-treated HepG2 cells; format: cell-based, human; conditions: HepG2, 40 μM berberine, 2 h and 4 h vs control cells
# Protocol: The miRNA profiling was performed using an Agilent human miRNA Microarray R14 V2 containing 866 human miRNAs. […] Microarrays were scanned following the Agilent microarray scanner protocol, and image analysis and quantification were performed using the Agilent Feature Extraction software (Agilent Technologies). […]
# [2] = system: miR-21-3p; experiment: qRT-PCR microRNA assay in primary human hepatocytes; format: cell-based; conditions: PHHs, 40 μM berberine, 2 h
# Protocol: The primary human hepatocytes from Caucasian donors were purchased from Invitrogen and cultured following the manufacturer's instructions. The hepatocytes were thawed and transferred into cryopreserved hepatocytes recovery medium (CM7000, Invitrogen), centrifuging at room temperature, 100×g for 10 min. Then, the hepatocytes were diluted to seeding density with plating medium (CM3000, Invitrogen) and added into collagen I-coated plates (Invitrogen). These plates were incubated at 37° C. for 4-6 hours under 5% CO2 for forming a monolayer. Then, plating medium was replaced by overlay incubation medium (CM4000 and 0.35 mg/mL Geltrex™ Matrix, Invitrogen), and the incubation medium was replaced daily. In the following examples, hepatocytes form 3 to 4 donors were used for experiments. A 50 mM stock solution of berberine chloride (Sigma-Aldrich) was prepared in dimethyl sulfoxide (DMSO). Cells were treated with 40 μM of berberine chloride or 0.08% DMSO as the control. For induction of lipid droplets formation in cultured cells, 200 μM of oleic acid (Sigma-Aldrich) was added into the culture medium for 24 h. Total RNA was extracted using a TRIZOL reagent (Invitrogen) according to the manufacturer's protocol. The total RNA quantity was measured using a NanoDrop ND-1000 spectrophotometer (Nanodrop Technologies). […]
# [3] = system: DGAT2; experiment: qRT-PCR mRNA expression in HepG2 cells; format: cell-based, human; conditions: HepG2, miR-21-3p over-expressed, 24 h
# Protocol: (§1) The human HepG2 cells and HEK 293T cells used in the following examples were originally obtained from the American Tissue Culture Collection (ATCC, USA). The human HCC HepG2 cell line was cultured in Minimum Essential Medium Eagle (Sigma) supplemented with 10% fetal bovine serum (FBS) (Invitrogen), 2.2 g/L of sodium bicarbonate (Sigma), 0.1 mM of non-essential amino acids (Caisson), 1 mM of sodium pyruvate (Invitrogen), and 10 of ml/L penicillin-streptomycin-amphotericin solution (Biological Industries). Human HEK-293T cells were maintained in high-glucose Dulbecco's modified eagle medium (Invitrogen) supplemented with 10% FBS and 3.7 g/L of sodium bicarbonate (Sigma). Both cell lines were cultured at 37° C. and 5% CO2.
# (§2) Total RNA was extracted using a TRIZOL reagent (Invitrogen) according to the manufacturer's protocol. The total RNA quantity was measured using a NanoDrop ND-1000 spectrophotometer (Nanodrop Technologies). The total RNA quality and integrity were assayed using an Agilent 2100 bioanalyzer with an RNA 6000 nano kit (Agilent Technologies).
# (§3) Total RNAs (1 μg) were reverse-transcribed into cDNA by using M-MuLV Reverse Transcriptase (Thermo) and Oligo(dT)12-18 primers (Invitrogen) according to the manufacturer's protocol. The cDNA were then used for a real-time PCR with a LightCycler 480 SYBR Green I Master (Roche) by using primers shown in the following Table 1. The gene expression levels were normalized to GAPDH levels.
# (§4) The HepG2 cells were transfected at a density of 5×10^4 cells per well in a 24-well culture plates with either 50 nM of hsa-miR-21-3p (miR-21-3p mimic) or negative-control mimic (NC mimic), or with either 100 nM of hsa-miR-21-3p inhibitor (miR-21-3p inhibitor) or negative-control inhibitor (NC inhibitor) by using the DharmaFECT 4 transfection reagent (Thermo Scientific Dharmacon) according to the manufacturer's instructions. Cells were incubated for 24 h or 48 h with a microRNA mimic or inhibitor prior to RNA purification for gene expression analysis, and were incubated for 72 h for protein expression analysis.
# [4] = system: DIDO1; experiment: qRT-PCR mRNA expression in HepG2 cells; format: cell-based, human; conditions: HepG2, 50 nM mimic transfection, 24 hours
# Protocol: as §1, §2, §3, §4
# [5] = system: EEF2K; experiment: qRT-PCR mRNA expression in HepG2 cells; format: cell-based, human; conditions: HepG2, 50 nM mimic transfection, 24 hours
# Protocol: as §1, §2, §3, §4
# [6] = system: NBPF8; experiment: qRT-PCR mRNA expression in HepG2 cells; format: cell-based, human; conditions: HepG2, 50 nM mimic transfection, 24 hours
# Protocol: as §1, §2, §3, §4
# [7] = system: TMEM137; experiment: qRT-PCR mRNA expression in HepG2 cells; format: cell-based, human; conditions: HepG2, 50 nM mimic transfection, 24 hours
# Protocol: as §1, §2, §3, §4
# [8] = system: intracellular SAM; experiment: Measurement of intracellular SAM concentration in HepG2 cells; format: cell-based, human
# Protocol: […] The intracellular SAM of 5×10^4 HepG2 cells pellet was resuspended in […] of an extraction solution (0.2% perchloric acid plus 0.08% (v/v) 2-mercaptoethanol in ddH2O). Cells were incubated at room temperature for 1 h and vortexed every 5 min. The suspension was centrifuged at 4° C. at 10000×g for 5 min, and then the supernatant was collected. SAM levels in the supernatants were quantified using the Bridge-It SAM fluorescence assay kit (Mediomics) and detected using SpectraMax plate reader (Molecular Devices) according to the manufacturer's instructions.
# [9] = system: HepG2 cells; experiment: BrdU incorporation cell proliferation assay; format: cell-based, human; conditions: HepG2, mimic 24 h plus additional 24 h BrdU, vs NC mimic
# Protocol: The HepG2 cells were seeded at a density of 1×10^4 cells per well in a 96-well culture plate the day before transfection. After transfection with 50 nM of hsa-miR-21-3p mimic or the negative-control mimic for 24 h, the cultured media were refreshed with complete media containing the BrdU reagent, and incubated for an additional 24 hour for BrdU incorporation. The BrdU incorporation was quantified by using the BrdU cell proliferation colorimetric ELISA kit (abcam) according to the manufacturer's protocol and detected using the MRX II microplate reader (DYNEX).
# [10] = system: 3′ UTR sequence of DGAT2; experiment: Reporter examination of miR-21-3p and DGAT2 3′ UTR (technology similar to Example 6); format: cell-based, human
# Protocol: The HEK-293T and HepG2 cells were seeded at a density of 5×10^4 cells per well in a 24-well culture plate the day before transfection. The HEK-293T and HepG2 cells were tri-transfected with (1) any one of the above-mentioned pMIR-REPORT-3′ UTR construction (300 ng), (2) the control Renilla luciferase reporter plasmid pRL-TK from Promega (10 ng), and (3) 50 nM of hsa-miR-21-3p mimic or negative-control mimic by using the Lipofectamine 2000 transfection reagent (Invitrogen) according to the manufacturer's instructions. Luciferase assays were performed after transfection for 48 h by using the Dual Luciferase reporter assay kit (Promega) and the Paradigm detection platform (Beckman) according to the manufacturer's protocol. The firefly luciferase activity was normalized relative to the Renilla luciferase activity.
Compound,hsa-miR-21-3p expression increase (miRNA microarray) [1] [fold],miR-21-3p expression (qRT-PCR) [2],decrease in mRNA level of DGAT2 [3] [fold],decrease in mRNA expression of DIDO1 [4] [%],decrease in mRNA expression of EEF2K [5] [%],decrease in mRNA expression of NBPF8 [6] [%],decrease in mRNA expression of TMEM137 [7] [%],"intracellular SAM contents increase ([8]; HepG2, mimic transfection 48 h vs NC mimic) [fold]","intracellular SAM contents increase ([8]; HepG2, mimic transfection 72 h vs NC mimic) [fold]",inhibition of cellular proliferation (BrdU incorporation) [9] [fold],suppression of DGAT2 expression by pairing with 3′ UTR [10] [fold]
COc1ccc2cc3[n+](cc2c1OC)CCc1cc2c(cc1-3)OCO2 [berberine],4,up-regulation,,,,,,,,,
"hsa-miR-21-3p (CAACACCAGUCGAUGGGCUGU; listed as RNA, chemistry not given here) [miR-21-3p mimic]",,,2.3,< 50,> 50,< 50,< 50,1.6,3.0,1.7,1.4
